According to patent publication US20210251228A1, “METHODS FOR REPELLING DROSOPHILA SPECIES USING 2-PENTYLFURAN” (The United States of America, as represented by the …, priority 2020, published 2021):
Counter-ions that a name gives are not always drawn.

What was measured:
[1] = test system: Drosophila suzukii antennae; test: Coupled GC-EAD of bread dough headspace volatiles on SWD antennae; conditions: adult female SWD antennae; adsorbent extract of bread dough; authentic standards 10 ng/μl
Description: Adsorbent Sampling from Bread Dough: The bread dough bait consisted of whole-wheat flour (17.25 g), sugar (2 g), dry active bread yeast (0.325 g), apple cider vinegar (1 ml), and water (25 ml) (Cha, D. H., et al., J. Econ. Entomol., 111: 645-652 (2018a)). Headspace volatiles were collected from 10 g bread dough ball placed in a screened specimen cup (130 ml) by using 2.41 closed volatile collection chambers (ARS, Inc., Gainesville, Fla.) with one air inlet adapter (7 mm ID) on the top and an outlet adapter (7 mm ID) on the bottom wall. Clean air from a filtering and delivery system (ARS Inc., Gainesville, Fla.) was pushed into the chamber at 0.7 L/min through the top inlet port, and volatiles from the dough were pushed out through volatile traps (activated charcoal adsorbent filters, ORBO™32-small, Supelco Inc., Bellefonte, Pa.) on the bottom of the chamber. An additional ORBO™ filter was used to ensure that no breakthrough occurred. For each sample of dough (2 dough samples total), adsorbent collections were made over a 2-day period at room temperature using the same volatile trap. Volatiles were eluted with 600 μl methylene chloride every 24 h from the filters of a given dough sample and combined across the total of the collecting days (from 2 dough samples). The combined extract was kept at −20° C. and subjected to as chromatography-electroantennographic detection (GC-EAD) and gas chromatography-mass spectrometry (GC-MS) analyses.
Coupled Gas Chromatographic-Electroantennographic Detection (GC-EAD): Coupled GC-EAD analysis was performed as described previously (Cha, D. H., J. Chem. Ecol., 34: 1180-1189 (2008); Cha, D. H., et al., J. Chem. Ecol., 38: 1419-1431 (2012)) using a Hewlett Packard 5890 Series II gas chromatograph equipped with either a non-polar DB-5 ms capillary column (30 m×0.25 mm ID, 0.25 μm film thickness; Agilent Technologies, Wilmington, Del.) or polar DB-WAXetr capillary column (30 m×0.25 mm ID, 0.25 μm film thickness; Agilent Technologies, Wilmington, Del.) in the splitless mode with 1 min sampling time. The oven temperature was programmed at 40° C. for 5 min, then increased by 15° C./min to 250° C., and held for 5 min. Injector and detector temperatures were set at 250° C. Nitrogen gas was the carrier at a flow of 2 ml/min. The column effluent was split 1:1 in the oven via a “Y” glass splitter (Supelco). One arm of the splitter led to the flame ionization detector (FID) (250° C.) and the other to the heated EAD port (250° C.). Whole head preparations were made of individual flies, age 5-9 day, for GC-EAD analysis (Cha et al. 2012). The head was separated from the body and its antennae positioned between two gold wire electrodes immersed in saline filled (Drosophila ringer solution; 46 mmol NaCl, 182 mmol KCl, 3 mmol CaCl2, and 10 mmol Tris HCl at pH 7.2) micropipettes in an acrylic holder. The antennal holder was placed inside a humidified condenser and maintained at 5° C. The output signal from the antenna was amplified by a customized high input impedance DC amplifier and recorded on an HP 3390A integrator.
Chemical Analysis: GC-MS was carried out with an Agilent 5975MS coupled with a Agilent 6890GC equipped with either a DB-5 ms capillary column (30 m×0.25 mm ID, 0.25 μm film thickness; Agilent Technologies, Wilmington, Del.) or DB-WAXetr capillary column (30 m×0.25 mm ID, 0.25 μm film thickness; Agilent Technologies, Wilmington, Del.). Helium was the carrier gas (1.0 ml/min constant flow). The GC temperature program was the same as used for the GC-EAD analyses. The MS transfer-line was held at 260° C., the MS source at 230° C., and the MS quad at 150° C. Mass spectra were taken in EI mode (at 70 eV) in the range from 40 m/z to 350 m/z with a scanning rate of 4.58 scan/s. GC-MS data were processed with the MDS-Chemstation software (Agilent Technologies). […]

SWD = conditions: 1-octen-3-ol released near ripe raspberries; cited from earlier work

SMILES	GC-EAD activity (antennal response) [1]	effect on infestation of ripe raspberries by SWD (SWD)
CC(O)C(C)O (stereo not drawn) [2,3-butanediol]	active	
CCCCCO [1-pentanol]	active	
CCCCCCCCC=O [nonanal]	active	
CCCCCCCC(C)=O [2-nonanone]	active	
OCCc1ccccc1 [2-phenylethanol]	active	
CCCCCOC(C)=O [pentyl acetate]	active	
CCC(C)COC(C)=O (stereo not drawn) [2-methylbutyl acetate]	active	
CCCCCCO [1-hexanol]	active	
CCCCCCCC(=O)OCC [ethyl octanoate]	active	
CC(=O)C(C)O (stereo not drawn) [acetoin]	active	
C=CC(O)CCCCC (stereo not drawn) [1-octen-3-ol, reference compound]	active	significantly reduced infestation
CC(=O)OCCC(C)C [isoamyl acetate]	active	
CC(C)CCOC=O [isoamyl formate]	active	
CCCCCCCO [1-heptanol]	active	
